{
  "source": "paper PMC11822212",
  "about": "“High-throughput screening identifies Aurora kinase B as a critical therapeutic target for Merkel cell carcinoma” (Nature Communications, 2025)",
  "origin": "cited, not measured here",
  "test_system": "MKL-1 (VP-MCC) xenograft tumors",
  "design": "method as in PMID 22572880",
  "settings": "prior report; cited from earlier work",
  "data": [
    {"smiles": "COCCn1c2c([n+](Cc3cnccn3)c1C)C(=O)c1ccccc1C2=O", "note": "[sepantronium bromide, reference compound]", "values": [
      {"measurement": "growth of MKL-1 (VP-MCC) xenograft tumors (in words)", "value": "slowed the growth of MKL-1 (VP-MCC) xenograft tumors"}
    ]}
  ]
}
